Columns and labels:
[1] = biological target: [GSPT1]-[compound of formula (I)]-[CRBN/DDB1] complex (Homo sapiens, UniProt P15170+Q96SW2); assay: HTRF ternary complex assay (GSPT1); assay type: binding; details: read-out: HTRF ternary complex Average pEC50 by molecule (converted)
Method: The effect of the molecular glue compounds of the invention on the formation of a ternary complex composed of [GSPT1]-[compound of formula (I)]-[CRBN/DDB1] was investigated.
Mix solution of proteins and reagents was prepared: • 48 nM GSPT1, 52.8 nM 6×His-CRBN/DDB1, 3 nM of Streptavidin-Eu cryptate ([…]) and 6.67 nM of Anti-6×his-d2 ([…]) was prepared in PPI Europium detection buffer (purchased from Cisbio) with 1 mM DTT.
The tested compounds in dose-response were dispensed onto a white 384-well low volume plate (Greiner, 784075). DMSO was backfilled to all wells, resulting in a final DMSO content of 0.5%. Wells containing only DMSO served as background.
The plate was sealed with transparent film and shaken using a VibroTurbulator for 60 sec at level 3.
The plate was then spun down shortly (10 sec, 1000 rcf) and incubated at 25° C. for 180 min.
The read-out was performed with plate reader (Pherastar, BMG Labtech) in time resolved fluorescence mode. Filter settings: TR 337 665 620.
The results were analyzed as follows: • 1) an average of fluorescence for background signal was calculated and used as a negative control; • 2) raw fluorescence values for tested compounds were normalized against negative controls; • 3) saturation curve was fitted to specific binding with Hill slope model; • 4) EC50 and pEC50 values were determined.

[2] = biological target: [CK1α]-[compound]-[CRBN/DDB1] ternary complex (Homo sapiens, UniProt P48729+Q96SW2); assay: AlphaLISA assay for off-target recruitment detection, CK1α; assay type: binding; details: 1 μM compound; normalized to FPFT-2216; read-out: Normalized ternary complex response, CK1α
Method: (§1) The ability of the molecular glue compounds of the invention to mediate the proximity of CRBN with its known neo-substrates (shown in Table 3) was assessed using AlphaLISA to detect the formation of a [neo-substrate]-[compound of formula (I)]-[CRBN/DDB1] ternary complex.
(§2) Two types of protein solution were prepared: • neo-substrate, 40 μg/ml AlphaScreen Donor Beads (Table 3) in PBS (10 mM phosphate buffer, 137 mM NaCL, 2.7 mM KCl, pH 7.4) buffer supplemented with Tween-20 (Table 3) and 1 mM DTT, • 200 nM 6×His-CRBN/DDB1, 40 μg/ml AlphaLISA Anti-6×His Acceptor beads in PBS buffer with Tween-20 (Table 3) and 1 mM DTT.
(§3) The prepared solutions were incubated at room temperature for 30 min and then the solution containing the donor beads was mixed with the solution containing the acceptor beads.
(§4) The tested compounds were dispensed onto a white 384-well AlphaPlate 384 SW. DMSO was backfilled to all wells, resulting in a final DMSO content of 2%. Wells containing only DMSO served as background. Next, 10 μl of solution with donor and acceptor beads was added to the wells.
(§5) The plate was sealed with transparent film and shaken using a VibroTurbulator for 60 sec at room temperature, level 3. The plate was then spun down shortly (10 sec, 1000 rcf, room temperature) and incubated at 25° C. for 30 min.
(§6) The read-out was performed with PerkinElmer Enspire Multimode Plate Reader (method for AlphaLISA 384-well low volume, Filterset: λexc=680 nm, λem=615 nm).
(§7) The results were analyzed as follows: • 1) an average of luminescence for background signal was calculated and used as a negative control; • 2) an average of the maximum measured luminescence for reference compound (Table 3) was calculated and used as an internal positive control; • 3) raw luminescence values were normalized against positive and negative controls; • 4) Normalized responses to reference molecular glue were determined.

[3] = biological target: T1, [SALL4 ZF2]-[compound]-[CRBN/DDB1] ternary complex (Homo sapiens, UniProt Q96SW2+Q9UJQ4); assay: AlphaLISA assay for off-target recruitment detection, SALL4 ZF2; assay type: binding; details: 1 μM compound; normalized to Lenalidomide; read-out: Normalized ternary complex response, SALL4 ZF2
T1 construct: SALL4 ZF2
Method: as §1, §2, §3, §4, §5, §6, §7

[4] = biological target: CRBN/DDB1 protein complex (Homo sapiens, UniProt Q96SW2); assay: CRBN displacement TR-FRET assay; details: Thalidomide-Red tracer, 6×His-CRBN/DDB1; read-out: CRBN binding Ki
Method: CRBN/DDB1 protein complex was mixed with Thalidomide-Red and a compound to be tested (the “test compound”). The test solution contained PPI Europium detection buffer, 1 mM DTT, 6.8 nM Thalidomide-Red (the tracer), 5 nM 6×His-CRBN/DDB1 protein, 0.5 nM Anti-6× His-Eu cryptate, 1% DMSO. The test solution was added to a 384-well assay plate.
The plate was spun-down (1 min, 1000 rpm, 22° C.) and then shaken using a VibroTurbulator for 30 sec at room temperature (20-25° C.), with the frequency set to level 10. The assay plate with protein and the tracer was incubated for 180 min at room temperature (20-25° C.) prior to read-out with a plate reader. The read-out was performed with plate reader (Pherastar, BMG Labtech) in time resolved fluorescence mode. Filter settings: TR 337 665 620.
The CRBN displacement TR-FRET experiment was carried out with various concentrations of the test compounds in order to measure Ki values.
The Ki values of competitive inhibitors were calculated using the equation based on the IC50 values of relationship between compound concentration and measured […], the Kd value of the Thalidomide-Red and CRBN/DDB1 complex, and the concentrations of the protein and the tracer in the displacement assay (as described by Cheng and Prusoff, Biochem Pharmacol 1973; 22:3099-3108).

[5] = biological target: T2, [IKZF1 ZF2]-[compound]-[CRBN/DDB1] ternary complex (Homo sapiens, UniProt Q13422+Q96SW2); assay: AlphaLISA assay for off-target recruitment detection, IKZF1 ZF2; assay type: binding; details: 1 μM compound; normalized to Lenalidomide; read-out: Normalized ternary complex response, IKZF1 ZF2
T2 construct: IKZF1 ZF2
Method: as §1, §2, §3, §4, §5, §6, §7

CRBN/DDB1 protein complex, sequence (Q96SW2 whole entry, species assumed): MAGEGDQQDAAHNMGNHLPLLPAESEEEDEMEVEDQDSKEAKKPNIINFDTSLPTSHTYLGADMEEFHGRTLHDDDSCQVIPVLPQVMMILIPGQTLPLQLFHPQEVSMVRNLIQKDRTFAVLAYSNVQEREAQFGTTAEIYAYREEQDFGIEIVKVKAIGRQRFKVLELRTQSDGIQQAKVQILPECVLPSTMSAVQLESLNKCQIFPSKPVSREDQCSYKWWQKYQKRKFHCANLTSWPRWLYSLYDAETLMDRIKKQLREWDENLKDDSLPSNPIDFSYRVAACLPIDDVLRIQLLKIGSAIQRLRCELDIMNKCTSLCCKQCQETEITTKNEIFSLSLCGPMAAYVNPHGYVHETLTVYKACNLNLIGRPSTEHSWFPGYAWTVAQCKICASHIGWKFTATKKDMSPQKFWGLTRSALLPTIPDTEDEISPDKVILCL
CRBN/DDB1 protein complex, sequence (Q16531 whole entry partner, species assumed): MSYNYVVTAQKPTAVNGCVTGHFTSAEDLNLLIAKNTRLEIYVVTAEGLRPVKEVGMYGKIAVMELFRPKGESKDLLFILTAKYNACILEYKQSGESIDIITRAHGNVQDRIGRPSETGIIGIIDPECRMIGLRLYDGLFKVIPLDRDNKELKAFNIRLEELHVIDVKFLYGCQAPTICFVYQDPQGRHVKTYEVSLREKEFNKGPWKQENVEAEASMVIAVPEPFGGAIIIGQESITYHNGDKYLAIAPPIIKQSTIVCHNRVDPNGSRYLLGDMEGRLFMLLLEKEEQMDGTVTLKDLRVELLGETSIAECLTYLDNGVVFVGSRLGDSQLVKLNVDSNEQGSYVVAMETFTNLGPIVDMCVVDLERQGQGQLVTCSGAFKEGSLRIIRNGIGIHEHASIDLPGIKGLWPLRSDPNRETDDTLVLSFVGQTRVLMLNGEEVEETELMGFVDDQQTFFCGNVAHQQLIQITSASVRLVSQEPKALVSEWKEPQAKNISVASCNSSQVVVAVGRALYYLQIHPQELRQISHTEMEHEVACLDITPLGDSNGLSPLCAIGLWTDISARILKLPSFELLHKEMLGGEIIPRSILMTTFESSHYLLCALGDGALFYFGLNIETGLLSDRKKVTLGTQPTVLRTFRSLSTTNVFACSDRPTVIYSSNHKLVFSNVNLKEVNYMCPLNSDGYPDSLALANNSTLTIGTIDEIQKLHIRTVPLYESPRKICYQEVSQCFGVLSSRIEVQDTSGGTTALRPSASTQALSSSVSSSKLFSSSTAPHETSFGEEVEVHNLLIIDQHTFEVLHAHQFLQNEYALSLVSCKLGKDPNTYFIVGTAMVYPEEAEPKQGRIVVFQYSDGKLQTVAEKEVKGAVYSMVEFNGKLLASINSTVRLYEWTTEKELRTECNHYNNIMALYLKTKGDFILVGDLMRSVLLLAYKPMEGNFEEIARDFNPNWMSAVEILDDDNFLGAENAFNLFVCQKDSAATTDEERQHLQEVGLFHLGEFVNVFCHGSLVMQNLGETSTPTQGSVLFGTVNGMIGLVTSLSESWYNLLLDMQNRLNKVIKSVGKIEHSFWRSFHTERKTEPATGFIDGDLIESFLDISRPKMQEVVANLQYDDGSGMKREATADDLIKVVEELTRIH
T1 sequence (Q9UJQ4 410-432 limits assumed): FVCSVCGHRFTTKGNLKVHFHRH
T1 sequence (Q96SW2 whole entry): as the sequence (Q96SW2 whole entry, species assumed) above
T1 sequence (Q16531 whole entry partner): as the sequence (Q16531 whole entry partner, species assumed) above
[CK1α]-[compound]-[CRBN/DDB1] ternary complex, sequence (P48729 whole entry): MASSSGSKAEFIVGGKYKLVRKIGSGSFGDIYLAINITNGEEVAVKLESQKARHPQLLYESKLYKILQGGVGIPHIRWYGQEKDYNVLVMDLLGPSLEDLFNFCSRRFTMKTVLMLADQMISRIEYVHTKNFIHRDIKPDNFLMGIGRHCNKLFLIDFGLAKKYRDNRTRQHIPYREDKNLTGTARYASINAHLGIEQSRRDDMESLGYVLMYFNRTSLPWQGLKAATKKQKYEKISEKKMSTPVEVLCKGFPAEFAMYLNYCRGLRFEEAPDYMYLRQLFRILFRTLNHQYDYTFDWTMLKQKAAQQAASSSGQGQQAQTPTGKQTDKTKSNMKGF
[CK1α]-[compound]-[CRBN/DDB1] ternary complex, sequence (Q96SW2 whole entry): as the sequence (Q96SW2 whole entry, species assumed) above
[CK1α]-[compound]-[CRBN/DDB1] ternary complex, sequence (Q16531 whole entry partner): as the sequence (Q16531 whole entry partner, species assumed) above
T2 sequence (Q13422 145-167 limits assumed): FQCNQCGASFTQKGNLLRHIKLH
T2 sequence (Q96SW2 whole entry): as the sequence (Q96SW2 whole entry, species assumed) above
T2 sequence (Q16531 whole entry partner): as the sequence (Q16531 whole entry partner, species assumed) above
[GSPT1]-[compound of formula (I)]-[CRBN/DDB1] complex, sequence (P15170 whole entry): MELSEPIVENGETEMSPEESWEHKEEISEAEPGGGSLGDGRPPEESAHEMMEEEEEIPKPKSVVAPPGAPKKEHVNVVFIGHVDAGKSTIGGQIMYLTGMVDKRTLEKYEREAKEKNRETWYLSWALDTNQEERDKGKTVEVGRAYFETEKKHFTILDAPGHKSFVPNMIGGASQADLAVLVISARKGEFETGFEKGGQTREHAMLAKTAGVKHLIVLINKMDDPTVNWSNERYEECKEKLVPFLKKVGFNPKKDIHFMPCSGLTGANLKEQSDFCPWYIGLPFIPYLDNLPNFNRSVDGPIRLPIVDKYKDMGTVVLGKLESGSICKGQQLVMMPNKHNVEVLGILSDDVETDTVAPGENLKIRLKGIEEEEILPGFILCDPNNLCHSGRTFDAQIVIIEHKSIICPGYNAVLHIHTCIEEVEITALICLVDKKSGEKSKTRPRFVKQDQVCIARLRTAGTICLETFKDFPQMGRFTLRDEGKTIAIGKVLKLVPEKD
[GSPT1]-[compound of formula (I)]-[CRBN/DDB1] complex, sequence (Q96SW2 whole entry): as the sequence (Q96SW2 whole entry, species assumed) above
[GSPT1]-[compound of formula (I)]-[CRBN/DDB1] complex, sequence (Q16531 whole entry partner): as the sequence (Q16531 whole entry partner, species assumed) above

Row | EC50 [1] [nM] | activation at 1 µM [2] [%] | activation at 1 µM [3] [%] | Ki [4] [nM] | activation at 1 µM [5] [%] | SMILES
1 | > 3160 | < 10 | < 10 | 500 to 1000 | < 10 | Cc1ccc(NC(=S)NCc2ccc3cc(C4CCC(=O)NC4=O)c(C)nc3c2)cc1Cl (centres unmarked) [Compound 2, 1-(3-chloro-4-methylphenyl)-3-((3-(2,6-dioxopiperidin-3-yl)-2-methylquinolin-7-yl)methyl)thiourea]
2 | 316 to 3160 | < 10 | < 10 | 500 to 1000 | < 10 | Cc1ccc(NC(=O)OCc2ccc3cc(C4CCC(=O)NC4=O)c(C)nc3c2)cc1Cl (centres unmarked) [Compound 4, (3-(2,6-dioxopiperidin-3-yl)-2-methylquinolin-7-yl)methyl (3-chloro-4-methylphenyl)carbamate]
3 | > 3160 | < 10 | 25 to 50 | < 500 | 25 to 50 | Cc1ccc(NC(=O)OCc2ccc3nc(C)c(C4CCC(=O)NC4=O)cc3c2)cc1Cl (centres unmarked) [Compound 5, (3-(2,6-dioxopiperidin-3-yl)-2-methylquinolin-6-yl)methyl (3-chloro-4-methylphenyl)carbamate]
4 | 316 to 3160 | < 10 | < 10 | > 1000 | < 10 | Cc1nc2cc(COC(=O)Nc3cc(OC(F)(F)F)ccc3F)ccc2cc1C1CCC(=O)NC1=O (centres unmarked) [Compound 6, (3-(2,6-dioxopiperidin-3-yl)-2-methylquinolin-7-yl)methyl (2-fluoro-5-(trifluoromethoxy)phenyl)carbamate]
5 | 316 to 3160 | < 10 | < 10 | < 500 | < 10 | Cc1nc2cc(COC(=O)Nc3ccc(C(C)(C)C)cc3)ccc2cc1C1CCC(=O)NC1=O (centres unmarked) [Compound 8, (3-(2,6-dioxopiperidin-3-yl)-2-methylquinolin-7-yl)methyl (4-(tert-butyl)phenyl)carbamate]
6 | 316 to 3160 | < 10 | < 10 | > 1000 | < 10 | Cc1nc2cc(COC(=O)Nc3cccc(C(C)(C)C)c3)ccc2cc1C1CCC(=O)NC1=O (centres unmarked) [Compound 9, (3-(2,6-dioxopiperidin-3-yl)-2-methylquinolin-7-yl)methyl (3-(tert-butyl)phenyl)carbamate]
7 | < 316 | < 10 | < 10 | < 500 | < 10 | Cc1nc2cc(COC(=O)Nc3ccc(C(C)(C)C)c(Cl)c3)ccc2cc1C1CCC(=O)NC1=O (centres unmarked) [Compound 10, (3-(2,6-dioxopiperidin-3-yl)-2-methylquinolin-7-yl)methyl (4-(tert-butyl)-3-chlorophenyl)carbamate]
8 | 316 to 3160 | < 10 | < 10 | > 1000 | < 10 | COc1ccc(NC(=O)OCc2ccc3cc(C4CCC(=O)NC4=O)c(C)nc3c2)cc1Cl (centres unmarked) [Compound 11, (3-(2,6-dioxopiperidin-3-yl)-2-methylquinolin-7-yl)methyl (3-chloro-4-methoxyphenyl)carbamate]
9 | 316 to 3160 | < 10 | < 10 | > 1000 | < 10 | Cc1nc2cc(COC(=O)Nc3ccc(Cl)c(Cl)c3)ccc2cc1C1CCC(=O)NC1=O (centres unmarked) [Compound 12, (3-(2,6-dioxopiperidin-3-yl)-2-methylquinolin-7-yl)methyl (3,4-dichlorophenyl)carbamate]
10 | 316 to 3160 | < 10 | < 10 | > 1000 | < 10 | Cc1nc2cc(COC(=O)Nc3ccc4c(c3)OCO4)ccc2cc1C1CCC(=O)NC1=O (centres unmarked) [Compound 14, (3-(2,6-dioxopiperidin-3-yl)-2-methylquinolin-7-yl)methyl benzo[d][1,3]dioxol-5-ylcarbamate]
11 | 316 to 3160 | < 10 | < 10 | > 1000 | < 10 | Cc1nc2cc(COC(=O)Nc3ccc4c(c3)OCCO4)ccc2cc1C1CCC(=O)NC1=O (centres unmarked) [Compound 15, (3-(2,6-dioxopiperidin-3-yl)-2-methylquinolin-7-yl)methyl (2,3-dihydrobenzo[b][1,4]dioxin-6-yl)carbamate]
12 | < 316 | < 10 | < 10 | < 500 | < 10 | Cc1nc2cc(COC(=O)Nc3cc(Cl)c(C)c(CN4CCOCC4)c3)ccc2cc1C1CCC(=O)NC1=O (centres unmarked) [Compound 17, (3-(2,6-dioxopiperidin-3-yl)-2-methylquinolin-7-yl)methyl (3-chloro-4-methyl-5-(morpholinomethyl)phenyl)carbamate]
13 | 316 to 3160 | < 10 | < 10 | 500 to 1000 | < 10 | Cc1nc2cc(COC(=O)Nc3ccc(C(F)(F)F)c(Cl)c3)ccc2cc1C1CCC(=O)NC1=O (centres unmarked) [Compound 18, (3-(2,6-dioxopiperidin-3-yl)-2-methylquinolin-7-yl)methyl (3-chloro-4-(trifluoromethyl)phenyl)carbamate]
14 | > 3160 | < 10 | < 10 | > 1000 | < 10 | Cc1nc2cc(COC(=O)Nc3cccc(OC(F)(F)F)c3)ccc2cc1C1CCC(=O)NC1=O (centres unmarked) [Compound 19, (3-(2,6-dioxopiperidin-3-yl)-2-methylquinolin-7-yl)methyl (3-(trifluoromethoxy)phenyl)carbamate]
15 | < 316 | < 10 | < 10 | < 500 | < 10 | Cc1nc2cc(COC(=O)Nc3ccc(-c4ccccc4)nc3)ccc2cc1C1CCC(=O)NC1=O (centres unmarked) [Compound 20, (3-(2,6-dioxopiperidin-3-yl)-2-methylquinolin-7-yl)methyl (6-phenylpyridin-3-yl)carbamate]
16 | 316 to 3160 | < 10 | < 10 | 500 to 1000 | < 10 | COc1cc(C)c(Cl)cc1NC(=O)OCc1ccc2cc(C3CCC(=O)NC3=O)c(C)nc2c1 (centres unmarked) [Compound 21, (3-(2,6-dioxopiperidin-3-yl)-2-methylquinolin-7-yl)methyl (5-chloro-2-methoxy-4-methylphenyl)carbamate]
